From publication PMC11610137, “TRIM4 enhances small-molecule-induced neddylated-degradation of CORO1A for triple negative breast cancer therapy” (Theranostics, 2024)
pKd: −log10 of the molar value.

Biological target: T1, Coronin 1A (CORO1A) (Homo sapiens, UniProt P31146)
T1 construct: EGFP-tagged CORO1A overexpressed in HEK 293T cells (lysate)
Assay: MST with EGFP-CORO1A cell lysate; supported by CETSA and DARTS in MDA-MB-231 cells
Assay type: binding

T1 sequence (P31146 2-461): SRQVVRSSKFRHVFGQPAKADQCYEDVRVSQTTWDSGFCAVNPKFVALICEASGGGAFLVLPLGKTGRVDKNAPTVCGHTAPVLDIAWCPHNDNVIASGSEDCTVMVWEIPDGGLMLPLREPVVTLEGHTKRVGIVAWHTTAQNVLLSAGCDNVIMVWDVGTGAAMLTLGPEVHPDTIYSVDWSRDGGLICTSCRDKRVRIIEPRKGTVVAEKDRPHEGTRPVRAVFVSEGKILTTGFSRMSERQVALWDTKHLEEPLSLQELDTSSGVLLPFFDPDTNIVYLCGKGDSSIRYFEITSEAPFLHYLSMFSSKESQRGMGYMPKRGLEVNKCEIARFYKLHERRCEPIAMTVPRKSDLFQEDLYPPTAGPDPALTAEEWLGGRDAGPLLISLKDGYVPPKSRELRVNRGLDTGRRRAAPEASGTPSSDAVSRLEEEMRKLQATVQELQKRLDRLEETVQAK

Aurovertin B [AB]
pKd: 6.45
